Consider 13 compounds from ChEMBL document CHEMBL4325911, “Discovery of N-(piperidin-3-yl)-N-(pyridin-2-yl)piperidine/piperazine-1-carboxamides as small molecule inhibitors of PCSK9” (Bioorg Med Chem Lett, 2018).

Data set [1] deals with 80S Ribosome. The data set can be described thus: Binding affinity to 80S ribosome in human HuH7 cells harboring human PCSK9 (1 to 152 residues)-proLuc assessed as inhibition of PCSK9 mRNA translation after overnight incubation by luciferase reporter gene assay. It is filed as cell-based. As to conditions: huh-7.
Data set [2] addresses 80S Ribosome. The data set can be described thus: Binding affinity to 80S ribosome in human HeLa cells lysates using human full length PCSK9 encoding mRNAs assessed as inhibition of PCSK9 mRNA translation after 45 mins by Steady-Glo luciferase reporter gene assay. In kind it is cell-free.
The nature of data set [3]: Lipophilicity, log D of the compound by shake flask method. It is filed as physicochemical. As to conditions: octanol/water.
A short description of data set [4]: Intrinsic clearance in human liver microsomes. In kind it is ADME, Microsome. As to conditions: read-out: CLH.
In the next data set the test system is Bone marrow cell. The data set can be described thus: Cytotoxicity against rat bone marrow cells assessed as reduction in cell viability after 72 hrs by celltiter glo assay. It is filed as cell-based.
The nature of data set [5]: Permeability in RRCK cells measured up to 1.5 hrs. It is filed as ADME, cell-based, Canis lupus familiaris, MDCKII-LE. As to conditions: dog, MDCK; read-out: permeability.
Data set [6] has as its target Voltage-gated inwardly rectifying potassium channel KCNH2 (Homo sapiens, UniProt Q12809). The data set can be described thus: Binding affinity to human ERG by dofetilide fluorescence polarization binding assay.

Voltage-gated inwardly rectifying potassium channel KCNH2, sequence (Q12809 whole entry): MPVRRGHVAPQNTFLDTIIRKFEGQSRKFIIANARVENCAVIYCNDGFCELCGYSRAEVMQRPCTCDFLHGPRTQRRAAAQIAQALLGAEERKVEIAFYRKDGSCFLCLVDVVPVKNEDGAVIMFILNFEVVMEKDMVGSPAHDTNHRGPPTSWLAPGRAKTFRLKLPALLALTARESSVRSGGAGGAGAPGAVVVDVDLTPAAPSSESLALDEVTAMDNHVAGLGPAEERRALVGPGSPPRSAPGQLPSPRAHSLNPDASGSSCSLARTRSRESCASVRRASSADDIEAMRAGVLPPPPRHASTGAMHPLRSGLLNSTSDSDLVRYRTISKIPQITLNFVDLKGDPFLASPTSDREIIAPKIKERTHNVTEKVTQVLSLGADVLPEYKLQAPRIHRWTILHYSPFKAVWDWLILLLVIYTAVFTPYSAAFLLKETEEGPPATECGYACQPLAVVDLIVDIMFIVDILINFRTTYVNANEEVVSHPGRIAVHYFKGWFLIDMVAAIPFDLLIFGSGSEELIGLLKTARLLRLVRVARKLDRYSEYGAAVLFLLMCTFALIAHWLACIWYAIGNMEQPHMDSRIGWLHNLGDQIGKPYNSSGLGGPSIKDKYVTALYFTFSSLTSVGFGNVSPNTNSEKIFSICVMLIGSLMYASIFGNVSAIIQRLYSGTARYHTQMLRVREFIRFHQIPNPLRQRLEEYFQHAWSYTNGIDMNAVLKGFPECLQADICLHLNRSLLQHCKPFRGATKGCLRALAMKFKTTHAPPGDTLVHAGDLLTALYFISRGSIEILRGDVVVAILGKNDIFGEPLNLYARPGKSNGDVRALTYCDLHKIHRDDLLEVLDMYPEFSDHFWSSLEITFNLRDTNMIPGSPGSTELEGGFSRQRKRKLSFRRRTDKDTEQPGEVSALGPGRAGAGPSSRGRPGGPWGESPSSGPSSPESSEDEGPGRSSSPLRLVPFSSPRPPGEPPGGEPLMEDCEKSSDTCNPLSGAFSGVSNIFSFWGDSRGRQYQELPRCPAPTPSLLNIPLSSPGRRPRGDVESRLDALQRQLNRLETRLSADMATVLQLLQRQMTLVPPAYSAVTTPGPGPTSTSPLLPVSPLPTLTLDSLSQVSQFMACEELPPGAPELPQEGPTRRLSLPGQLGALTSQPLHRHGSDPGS

On to `O=C(N1CCC(c2ccccc2)CC1)N(c1nccc2ccccc12)[C@@H]1CCCNC1`, for which the values for the IC50 at 80S Ribosome [1], at 80S Ribosome [2] and with Bone marrow cell were 1.73 µM, 1.54 µM and 12.7 µM, respectively. In data set [3], this compound returned a logD of 1.4. For the same compound, in data set [4], the microsomal CLint turned out to be 13.9 µL/min/mg. The Papp at 1.5 h in data set [5] is 3.9 ×10⁻⁶ cm/s. The compound further displayed a Ki in data set [6] of 4.1 µM.
Regarding `Cc1ccc2c(N3CCN(C(=O)N(c4nccc5ccccc45)[C@@H]4CCCNC4)CC3)noc2c1`, the figures for the IC50 on 80S Ribosome [1] and in the data set with Bone marrow cell were 3.5 µM and 31.1 µM, respectively. The logD in data set [3] came to 1.6. Also, the microsomal CLint in data set [4] came to 12.9 µL/min/mg. The Papp at 1.5 h in data set [5] is 8.9 ×10⁻⁶ cm/s. The same compound displayed a Ki in data set [6] of 1.2 µM.
Regarding `O=C(N1CCC(c2ccccc2)CC1)N(c1ncccc1Cl)[C@@H]1CCCNC1`, the IC50 at 80S Ribosome [1] was 2.21 µM; at 80S Ribosome [2], 2.08 µM. The logD in data set [3] worked out at 0.9. Further, the microsomal CLint in data set [4] was less than 9.3 µL/min/mg. Also, the Papp at 1.5 h in data set [5] is 12.8 ×10⁻⁶ cm/s. Also, in data set [6], affinity was put at a Ki of 14.3 µM.
Regarding `O=C(c1ccc(-c2ccccc2)cc1)N(c1nccc2ccccc12)[C@@H]1CCCNC1`, in data set [5], the Papp at 1.5 h turned out to be 0.3 ×10⁻⁶ cm/s.
With `COc1ccc(CCC(=O)N(c2nccc3ccccc23)[C@@H]2CCCNC2)cc1`, on 80S Ribosome [2], the IC50 was 8.04 µM. In addition, the logD in data set [3] was 1.
Turning to `Cc1cccnc1N(C(=O)N1CCC(c2ccccc2)CC1)[C@@H]1CCCNC1`, the IC50 at 80S Ribosome [1] was determined as 2.05 µM; at 80S Ribosome [2] it was 2.33 µM. The same compound had a logD in data set [3] of 0.7. Also, the microsomal CLint in data set [4] is less than 8 µL/min/mg. Moreover, in data set [5], the Papp at 1.5 h worked out at 8.7 ×10⁻⁶ cm/s. In data set [6], the Ki is greater than 25 µM.
For `Cc1cccnc1N(C(=O)N1CCC(c2ccccc2F)CC1)[C@@H]1CCCNC1`, the IC50 on 80S Ribosome [2] was found to be 4.38 µM; in the data set with Bone marrow cell, 46.2 µM. The compound also had a logD in data set [3] of 1. In addition, in data set [4], the microsomal CLint was less than 8 µL/min/mg. For the same compound, the Papp at 1.5 h in data set [5] was 9.5 ×10⁻⁶ cm/s. For the same compound, in data set [6], the inhibition constant (Ki) was 9.8 µM.
In the case of `Cn1ccc2ccnc(N(C(=O)N3CCC(c4ccccc4)CC3)[C@@H]3CCCNC3)c21`, the IC50 on 80S Ribosome [2] worked out at 0.5 µM; in the data set with Bone marrow cell, 11.7 µM. Moreover, the logD in data set [3] was 1.4. Besides, the microsomal CLint in data set [4] turned out to be 11.8 µL/min/mg. For the same compound, in data set [5], the Papp at 1.5 h worked out at 5.2 ×10⁻⁶ cm/s. The Ki in data set [6] turned out to be 5.7 µM.
For `Cc1nccnc1N(C(=O)N1CCC(c2ccccc2)CC1)[C@@H]1CCCNC1`, the results for the IC50 at 80S Ribosome [2] and in the data set on Bone marrow cell were 3.63 µM and greater than 100 µM, respectively. In data set [3], this compound came in with a log distribution coefficient (logD) of 0.3. In addition, the microsomal CLint in data set [4] was less than 8 µL/min/mg. Also, the Papp at 1.5 h in data set [5] was found to be 11.5 ×10⁻⁶ cm/s. For the same compound, affinity in data set [6] was put at a Ki of 24.8 µM.
With `Cc1cccnc1N(C(=O)N1CCC(c2cnn3cccnc23)CC1)[C@@H]1CCCNC1`, the IC50 on 80S Ribosome [2] worked out at 0.92 µM; with Bone marrow cell, 10.1 µM. Besides, the logD in data set [3] came out at 0.2. The microsomal CLint in data set [4] was less than 8 µL/min/mg. Moreover, the Papp at 1.5 h in data set [5] worked out at 1.8 ×10⁻⁶ cm/s. Further, the Ki in data set [6] was greater than 40 µM.
With `O=C(N1CCN(c2ccccc2)CC1)N(c1nccc2ccccc12)[C@@H]1CCCNC1`, the IC50 on 80S Ribosome [1] was 12.6 µM. Moreover, the logD in data set [3] was found to be 0.8. Besides, the microsomal CLint in data set [4] worked out at 13.8 µL/min/mg. The Papp at 1.5 h in data set [5] is 5.8 ×10⁻⁶ cm/s. The affinity in data set [6], expressed as Ki, was 9.2 µM.
For the compound `Cc1cnc2c(c1)nnn2-c1ccc(CCC(=O)N(c2ncccc2Cl)[C@@H]2CCCNC2)nc1`, the IC50 on 80S Ribosome [1] was 0.85 µM; at 80S Ribosome [2], 2.27 µM; with Bone marrow cell, 27.1 µM. The compound further gave a logD in data set [3] of 0.7. The microsomal CLint in data set [4] stood at 9.3 µL/min/mg. For the same compound, the Papp at 1.5 h in data set [5] was determined as 6.2 ×10⁻⁶ cm/s. Affinity in data set [6] was put at a Ki of 5.9 µM.
As to `O=C(N1CCC(c2cnn3cccnc23)CC1)N(c1ncccc1Cl)[C@@H]1CCCNC1`, the IC50 on 80S Ribosome [1] is greater than 20 µM. In addition, in data set [3], the logD is -0.5. For the same compound, the microsomal CLint in data set [4] was less than 8 µL/min/mg. For the same compound, the Papp at 1.5 h in data set [5] is 1.8 ×10⁻⁶ cm/s.
